Source: EP4389751A1, “HETEROCYCLIC COMPOUNDS AND USES THEREOF” (Kumquat Biosciences Inc., priority 2021, dated 2024)
Read-outs that look alike come from different tables or passages of the source.

Key:
GP2D cells = test: Cell proliferation assay (CellTiter-Glo), K-Ras G12D cells; type: cell-based; conditions: read-out: Inhibition of GP2D Cells (IC50)
Procedure, shortened: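 CellTiter-Glo luminescence, taken roughly 5 days after dosing, measured growth of G12D-mutant GP2D cells in DMEM/2 mM glutamine/10% FBS. Compound dilution series (e.g., 9 points, 3-fold) added the day after plating. Four-parameter fitting gave IC50.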

[1] = molecular target: T1, KRAS protein (His-tagged GDP-loaded G12S 1-169) (Homo sapiens, UniProt P01116, G12S); test: Covalent modification of KRAS protein, intact-protein LC-MS; type: binding; conditions: for % G12S Modification at 24 hr.: 24hrs at room temperature, KRAS protein ~2 µM; for K-Ras12S engagement after 24-hour treatment: compound pairs differ only at R^6 (warhead)
T1 construct: His-tagged GDP-loaded G12S 1-169
Procedure, shortened: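 Percent covalent modification derives from deconvoluted intact-mass intensities of compound-adducted versus unmodified KRAS, measured by LC-ESI-MS. Before analysis, ~2 µM GDP-loaded His-KRAS 1-169 was exposed to compound for 24 h at room temperature and acidified with formic acid.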

Row | Compound | IC50 (GP2D cells; GP2D cells (K-Ras G12D)) | % G12S Modification at 24 hr. [1] | K-Ras12S engagement after 24-hour treatment [1] | IC50 (GP2D cells; GP2d)
1 | Cc1ncn(C(=O)N2CC3(CCCN(c4nc(OC[C@@]56CCCN5C[C@H](F)C6)nc5c(F)c(-c6ccc(F)c7sc(N)c(C#N)c67)c(Cl)cc45)C3)C2)n1 [Compound A102, 2-amino-4-(6-chloro-8-fluoro-2-(((2R,7aS)-2-fluorotetrahydro-1H-pyrrolizin-7 a(5H)-yl)methoxy)-4-(2-(3-methyl-1H-1,2,4-triazole-1-carbonyl)-2,6-diazaspiro[3.5]nonan-6-yl)quinazolin-7-yl)-7-fluorobenzo[b]thiophene-3-carbonitrile] | 1000 to 10000 nM | +++ (+++ indicates greater than 20% labelling) |  | 
2 | N#CCc1ncn(C(=O)N2CC3(C2)CN(c2nc(OC[C@@]45CCCN4C[C@H](F)C5)nc4c(F)c(-c5ccc(F)c6sc(N)c(C#N)c56)c(Cl)cc24)CCO3)n1 [Compound A110, 2-amino-4-(6-chloro-4-(2-(3-(cyanomethyl)-1H-1,2,4-triazole-1-carbonyl)-5-oxa-2,8-diazaspiro[3.5]nonan-8-yl)-8-fluoro-2-(((2R,7aS)-2-fluorotetrahydro-1H-pyrrolizin-7a(5H)-yl)methoxy)quinazolin-7-yl)-7-fluorobenzo[b]thiophene-3-carbonitrile] | 1000 to 10000 nM | +++ (+++ indicates greater than 20% labelling) | +++ (+++: indicates equal to or greater than 20% labelling) | 
3 | COCCN1CCC(Oc2nc(N3CCCCC4(CN(C(=O)n5cncn5)C4)C3)c3cc(Cl)c(-c4ccc(F)c5sc(N)c(C#N)c45)c(F)c3n2)CC1 [Compound A119, 4-(4-(2-(1H-1,2,4-triazole-1-carbonyl)-2,6-diazaspiro[3.6]decan-6-yl)-6-chloro-8-fluoro-2-((1-(2-methoxyethyl)piperidin-4-yl)oxy)quinazolin-7-yl)-2-amino-7-fluorobenzo[b]thiophene-3-carbonitrile] | 1000 to 10000 nM | +++ (+++ indicates greater than 20% labelling) |  | 
4 | N#Cc1cn(C(=O)N2C3CCC2CN(c2nc(OC[C@@]45CCCN4C[C@H](F)C5)nc4c(F)c(-c5ccc(F)c6sc(N)nc56)c(Cl)cc24)C3)cn1 [Compound A123, 1-(3-(7-(2-amino-7-fluorobenzo[d]thiazol-4-yl)-6-chloro-8-fluoro-2-(((2R,7aS)-2-fluorotetrahydro-1H-pyrrolizin-7a(5H)-yl)methoxy)quinazolin-4-yl)-3,8-diazabicyclo[3.2. 1]octane-8-carbonyl)-1H-imidazole-4-carbonitrile] |  | ++ (++ indicates between about 1%- 20% labelling) | ++ (++: indicates between 1% to 20% labelling) | ≤ 1000 nM
5 | N#Cc1c(N)sc2c(F)ccc(-c3c(Cl)cc4c(N5CCCC6(CN(C(=O)n7cncn7)C6)C5)nc(OC[C@@]56CCCN5C[C@H](F)C6)nc4c3F)c12 [Compound A129, 4-(4-(2-(1H-1,2,4-triazole-1-carbonyl)-2,6-diazaspiro[3.5]nonan-6-yl)-6-chloro-8-fluoro-2-(((2R,7aS)-2-fluorotetrahydro-1H-pyrrolizin-7a(5H)-yl)methoxy)quinazolin-7-yl)-2-amino-7-fluorobenzo[b]thiophene-3-carbonitrile] | 1000 to 10000 nM | +++ (+++ indicates greater than 20% labelling) |  | 
6 | N#Cc1c(N)sc2c(F)ccc(-c3ncc4c(N5CCCC6(CN(C(=O)n7cncn7)C6)C5)nc(OC[C@@]56CCCN5C[C@H](F)C6)nc4c3F)c12 [Compound A134, 4-(4-(2-(1H-1,2,4-triazole-1-carbonyl)-2,6-diazaspiro[3.5]nonan-6-yl)-8-fluoro-2-(((2R,7aS)-2-fluorotetrahydro-1H-pyrrolizin-7a(5H)-yl)methoxy)pyrido[4,3-d]pyrimidin-7-yl)-2-amino-7-fluorobenzo[b]thiophene-3-carbonitrile] | 1000 to 10000 nM | +++ (+++ indicates greater than 20% labelling) |  | 
7 | Nc1nc2c(-c3c(Cl)cc4c(N5CCCC6(CN(C(=O)n7cncn7)C6)C5)nc(OC[C@@]56CCCN5C[C@H](F)C6)nc4c3F)ccc(F)c2s1 [Compound A136, (6-(7-(2-amino-7-fluorobenzo[d]thiazol-4-yl)-6-chloro-8-fluoro-2-(((2R,7aS)-2-fluorotetrahydro-1H-pyrrolizin-7a(5H)-yl)methoxy)quinazolin-4-yl)-2,6-diazaspiro[3.5]nonan-2-yl)(1H-1,2,4-triazol-1-yl)methanone] | 1000 to 10000 nM | +++ (+++ indicates greater than 20% labelling) |  | 
8 | CN1CCC[C@H]1COc1nc(N2CCOC3(CN(C(=O)n4cncn4)C3)C2)c2cc(Cl)c(-c3ccc(F)c4sc(N)c(C#N)c34)c(F)c2n1 [Compound A137, 4-(4-(2-(1H-1,2,4-triazole-1-carbonyl)-5-oxa-2,8-diazaspiro[3.5]nonan-8-yl)-6-chloro-8-fluoro-2-(((S)-1-methylpyrrolidin-2-yl)methoxy)quinazolin-7-yl)-2-amino-7-fluorobenzo[b]thiophene-3-carbonitrile] | 1000 to 10000 nM | +++ (+++ indicates greater than 20% labelling) |  | 
9 | Nc1nc2c(-c3c(Cl)cc4c(N5CCN(C(=O)n6cncn6)CC(F)(F)C5)nc(OC[C@@]56CCCN5C[C@H](F)C6)nc4c3F)ccc(F)c2s1 [Compound A141, (4-(7-(2-amino-7-fluorobenzo[d]thiazol-4-yl)-6-chloro-8-fluoro-2-(((2R,7aS)-2-fluorotetrahydro-1H-pyrrolizin-7a(5H)-yl)methoxy)quinazolin-4-yl)-6,6-difluoro-1,4-diazepan-1-yl)(1H-1,2,4-triazol-1-yl)methanone] | 1000 to 10000 nM | +++ (+++ indicates greater than 20% labelling) | +++ (+++: indicates equal to or greater than 20% labelling) | 
10 | Nc1nc2c(-c3c(Cl)cc4c(N5CCN(C(=O)n6cncn6)CC5)nc(OC[C@@]56CCCN5C[C@H](F)C6)nc4c3F)ccc(F)c2s1 [Compound A146, (4-(7-(2-amino-7-fluorobenzo[d]thiazol-4-yl)-6-chloro-8-fluoro-2-(((2R,7aS)-2-fluorotetrahydro-1H-pyrrolizin-7a(5H)-yl)methoxy)quinazolin-4-yl)piperazin-1-yl)(1H-1,2,4-triazol-1-yl)methanone] | ≤ 1000 nM | +++ (+++ indicates greater than 20% labelling) |  | 
11 | Cc1ncn(C(=O)N2CC3(C2)CN(c2nc(OC[C@@]45CCCN4C[C@H](F)C5)nc4c(F)c(-c5ccc(F)c6sc(N)c(C#N)c56)c(Cl)cc24)CCO3)n1 [Compound A148, 2-amino-4-(6-chloro-8-fluoro-2-(((2R,7aS)-2-fluorotetrahydro-1H-pyrrolizin-7 a(5H)-yl)methoxy)-4-(2-(3-methyl-1H-1,2,4-triazole-1-carbonyl)-5-oxa-2,8-diazaspiro[3.5]nonan-8-yl)quinazolin-7-yl)-7-fluorobenzo[b]thiophene-3-carbonitrile] | 1000 to 10000 nM | +++ (+++ indicates greater than 20% labelling) |  | 
12 | N#Cc1c(N)sc2c(F)ccc(-c3c(Cl)cc4c(N5CCC6C5CCCN6C(=O)n5cncn5)nc(OC[C@@]56CCCN5C[C@H](F)C6)nc4c3F)c12 (stereo partly drawn) [Compound A152, 4-(4-(4-(1H-1,2,4-triazole-1-carbonyl)octahydro-1H-pyrrolo[3,2-b]pyridin-1-yl)-6-chloro-8-fluoro-2-(((2R,7aS)-2-fluorotetrahydro-1H-pyrrolizin-7a(5H)-yl)methoxy)quinazolin-7-yl)-2-amino-7-fluorobenzo[b]thiophene-3-carbonitrile] | ≤ 1000 nM | +++ (+++ indicates greater than 20% labelling) |  | 
13 | N#Cc1nccn1C(=O)N1C2CCC1CN(c1nc(OC[C@@]34CCCN3C[C@H](F)C4)nc3c(F)c(-c4ccc(F)c5sc(N)nc45)c(Cl)cc13)C2 [Compound A170, 1-(3-(7-(2-amino-7-fluorobenzo[d]thiazol-4-yl)-6-chloro-8-fluoro-2-(((2R,7aS)-2-fluorotetrahydro-1H-pyrrolizin-7a(5H)-yl)methoxy)quinazolin-4-yl)-3,8-diazabicyclo[3.2. 1]octane-8-carbonyl)-1H-imidazole-2-carbonitrile] |  | ++ (++ indicates between about 1%- 20% labelling) |  | ≤ 1000 nM
14 | N#Cc1c(N)sc2c(F)ccc(-c3c(Cl)cc4c(N5CCC6C5CN6C(=O)n5cncn5)nc(OC[C@@]56CCCN5C[C@H](F)C6)nc4c3F)c12 (stereo partly drawn) [Compound A183, 4-(4-(6-(1H-1,2,4-triazole-1-carbonyl)-2,6-diazabicyclo[3.2.0]heptan-2-yl)-6-chloro-8-fluoro-2-(((2R,7aS)-2-fluorotetrahydro-1H-pyrrolizin-7a(5H)-yl)methoxy)quinazolin-7-yl)-2-amino-7-fluorobenzo[b]thiophene-3-carbonitrile] | ≤ 1000 nM | ++ (++ indicates between about 1%- 20% labelling) |  | 
15 | Cc1nc(C)n(C(=O)N2CC3(COCCN(c4nc(OC[C@@]56CCCN5C[C@H](F)C6)nc5c(F)c(-c6ccc(F)c7sc(N)c(C#N)c67)c(Cl)cc45)C3)C2)n1 [Compound A185, 2-amino-4-(6-chloro-4-(2-(3,5-dimethyl-1H-1,2,4-triazole-1-carbonyl)-6-oxa-2,9-diazaspiro[3.6]decan-9-yl)-8-fluoro-2-(((2R,7aS)-2-fluorotetrahydro-1H-pyrrolizin-7a(5H)-yl)methoxy)quinazolin-7-yl)-7-fluorobenzo[b]thiophene-3-carbonitrile] | 1000 to 10000 nM | ++ (++ indicates between about 1%- 20% labelling) |  | 
